Test system: HPA axis
Assay: Plasma ACTH in dexamethasone-suppressed healthy subjects
Format: in vivo, human
Conditions: 1 mg oral dexamethasone repeated; confirms suppression of HPA axis
Experimental: Plasma ACTH levels were taken at 2155 h on Day 1 and on 0600 h on Day 2 whilst serum cortisol levels were taken prior to ingestion of the drug and were repeated every 30 minutes for the first four hours, then at 0200 h, 0300 h, 0400 h, 0500 h, 0600 h, 0800 h, 1000 h, 1300 h, 1600 h, 2200 h.
Assays: Serum cortisol was measured using the Bayer Advia Centaur Automated Immunoassay System. The inter-assay coefficient variation was 7% at 200 nmol/l (7.2 μg/dl), and 8% at 1,050 nmol/l (38 μg/dl). Plasma ACTH was measured using the DPC Immulite 2000 assay. Plasma 17OH-progesterone was measured using Liquid Chromatography Tandem Mass Spectrometry at Quest Diagnostics (Nichols Institute, San Juan Capistrano, Calif., USA) with an inter-assay coefficient of variation of 8.2%.

C[C@@H]1C[C@H]2[C@@H]3CCC4=CC(=O)C=C[C@]4(C)[C@@]3(F)[C@@H](O)C[C@]2(C)[C@@]1(O)C(=O)CO [dexamethasone]
ACTH values below the assay lower limit: 98%

From patent US20110159095A1, “TREATMENT OF ADRENAL INSUFFICIENCY” (priority 2008, published 2011)
